The structures appear in SMILES notation. Structures can show the parent of a compound that is named as a salt.

Series [1] deals with T1, Na^+ /H^+ exchanger of rabbit erythrocytes (Oryctolagus cuniculus, UniProt P23791).
T1 construct: exchanger of rabbit erythrocytes; from tissue; host or cells: erythrocytes in blood of cholesterol-fed New Zealand White rabbits
Briefly: Inhibition of the Na^+ /H^+ exchanger of rabbit erythrocytes (amiloride-sensitive sodium influx, flame photometry). The class given is cell-based, rabbit (New Zealand White). The conditions noted are these: pH 7.4, 37° C., hyperosmolar salt/sucrose medium. From the text: Inhibition of the Na^+ /H^+ exchanger of rabbit erythrocytes
New Zealand White rabbits (Ivanovas) received a standard diet containing 2% cholesterol for six weeks in order to activate the Na^+ /H^+ exchange and thus to be able to determine, by flame photomerry, the Na^+ influx into the erythrocytes via Na^+ /H^+ exchange. The blood was removed from the aural arteries and rendered incoagulable using 25 IU of potassium heparin. A part of each sample was used for the duplicate determination of the hematocrit by means of centrifugation. Aliquots of in each case 100 μl were used for measuring the initial Na^+ content of the erythrocytes.
In order to determine the amiloride-sensitive sodium influx, 100 μl of each blood sample were in each case incubated, at pH 7.4 and 37° C., in 5 ml of a hyperosmolar salt/sucrose medium (mmol/1: 140 NaCl, 3 KCl, 150 sucrose, 0.1 ouabain, 20 tris(hydroxymethyl)aminomethane). The erythrocytes were then washed three times with ice-cold MgCl2 /ouabain solution ([…]: 112 MgCl2, 0.1 ouabain) and hemolyzed in 2.0 ml of distilled water. The intracellular sodium content was determined by flame photometry.
The net influx of Na^+ was calculated from the difference between the initial sodium values and the sodium content of the erythrocytes following incubation. The amiloride-inhibitable sodium influx was calculated from the difference in the sodium content of the erythrocytes following incubation with and without amiloride 3×10^-4 mol/1. This method was also employed in the case of the compounds according to the invention.

The test system of another series is cardiac arrhythmias. The conditions noted are these: cited from earlier work.

T1 sequence (P23791 whole entry): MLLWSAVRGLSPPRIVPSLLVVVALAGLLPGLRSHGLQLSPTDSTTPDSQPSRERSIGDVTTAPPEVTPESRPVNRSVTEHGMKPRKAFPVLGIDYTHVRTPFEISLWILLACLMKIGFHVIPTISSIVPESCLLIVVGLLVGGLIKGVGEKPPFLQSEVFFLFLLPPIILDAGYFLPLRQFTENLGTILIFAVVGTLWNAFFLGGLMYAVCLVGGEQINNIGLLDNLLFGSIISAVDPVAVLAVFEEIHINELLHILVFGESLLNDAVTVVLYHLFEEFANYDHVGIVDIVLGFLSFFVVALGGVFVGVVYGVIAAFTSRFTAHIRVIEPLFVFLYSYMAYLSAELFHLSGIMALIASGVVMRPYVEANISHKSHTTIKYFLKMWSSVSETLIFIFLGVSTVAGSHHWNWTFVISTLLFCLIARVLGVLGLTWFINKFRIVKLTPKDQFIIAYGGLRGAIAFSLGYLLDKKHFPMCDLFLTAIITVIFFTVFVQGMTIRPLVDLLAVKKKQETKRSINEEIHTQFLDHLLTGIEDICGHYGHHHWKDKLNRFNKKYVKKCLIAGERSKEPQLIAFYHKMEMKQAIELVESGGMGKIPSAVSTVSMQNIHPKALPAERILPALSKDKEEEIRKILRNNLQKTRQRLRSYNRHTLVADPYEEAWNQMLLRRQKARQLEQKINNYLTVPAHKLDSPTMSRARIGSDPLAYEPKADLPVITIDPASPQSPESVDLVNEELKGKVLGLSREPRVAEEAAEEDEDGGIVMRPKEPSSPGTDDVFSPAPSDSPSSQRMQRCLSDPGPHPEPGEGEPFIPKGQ

Usually IC50 stands for the midpoint of a concentration-inhibition curve. Turning to `CS(=O)(=O)c1cc(C(=O)N=C(N)N)ccc1Oc1ccc(-c2nccn2Cc2ccccc2)cc1` [Example 1, 4-(1-Benzylimidazol-2-yl)phenoxy-3-methylsulfonylhenzoylguanidine, dihydrochloride], the IC50 in series [1] came to 300 nM.

With `CS(=O)(=O)c1cc(C(=O)N=C(N)N)ccc1Oc1ccc(-c2ncc[nH]2)cc1` [Example 2, 4-(Imidazol-2-yl)phenoxy-3-methylsulfonylbenzoylguanidine, dihydrochloride], the concentration for half-maximal inhibition (IC50) in series [1] was determined as 300 nM.

In the case of `CS(=O)(=O)c1cc(C(=O)N=C(N)N)ccc1Oc1ccc(-c2cccnc2)cc1` [Example 3, 4-[4-(3-Pyridyl)phenoxy]-3-methylsulfonylbenzoylguanidine, dihydrochloride], the IC50 in series [1] turned out to be 200 nM.

In the case of `CS(=O)(=O)c1cc(C(=O)N=C(N)N)ccc1Oc1ccc(-c2ccccn2)cc1` [Example 5, 4-[4-(2-Pyridyl)phenoxy]-3-methylsulfonylbenzoylguanidine, dihydrochloride], the half-maximal inhibitory concentration (IC50) in series [1] was 300 nM.

As for `N=C(N)NC(=O)c1nc(Cl)c(N)nc1N` [amiloride, Amiloride], the antiarrhythmic effect entry in the series on cardiac arrhythmias (Circulation 79, 1257 to 1263 (1989)) is “only weakly expressed”. In addition, the “hypotensive and saluretic side effects” value with cardiac arrhythmias (in vivo) was “accompanied by hypotensive and saluretic effects”.

The values above are taken from patent US5719169A, “Substituted benzoylguanidines, their use as a medicament or diagnostic, and medicament containing them” (priority 1993, dated 1998).
